The results in this text go back to article PMC4599575 (Journal of thrombosis and haemostasis : JTH, 2015).

Common to all, as to assay: surface plasmon resonance, protein immobilised on CM5 chip, […] Langmuir fit
Format in all cases: binding
On the technique in general: Surface plasmon resonance follows binding to a sensor surface in real time, without labels.

Experiment [1] has as its target VWF (plasma-derived multimeric VWF) (Homo sapiens, UniProt P04275).
Experiment [2] addresses GST-rVWF73-H (GST-VWF73-H) (Homo sapiens, UniProt P04275).
A further experiment deals with T1, rADAMTS13 (rA13) (Homo sapiens, UniProt Q76LX8).
T1 sequence (Q76LX8 75-1427): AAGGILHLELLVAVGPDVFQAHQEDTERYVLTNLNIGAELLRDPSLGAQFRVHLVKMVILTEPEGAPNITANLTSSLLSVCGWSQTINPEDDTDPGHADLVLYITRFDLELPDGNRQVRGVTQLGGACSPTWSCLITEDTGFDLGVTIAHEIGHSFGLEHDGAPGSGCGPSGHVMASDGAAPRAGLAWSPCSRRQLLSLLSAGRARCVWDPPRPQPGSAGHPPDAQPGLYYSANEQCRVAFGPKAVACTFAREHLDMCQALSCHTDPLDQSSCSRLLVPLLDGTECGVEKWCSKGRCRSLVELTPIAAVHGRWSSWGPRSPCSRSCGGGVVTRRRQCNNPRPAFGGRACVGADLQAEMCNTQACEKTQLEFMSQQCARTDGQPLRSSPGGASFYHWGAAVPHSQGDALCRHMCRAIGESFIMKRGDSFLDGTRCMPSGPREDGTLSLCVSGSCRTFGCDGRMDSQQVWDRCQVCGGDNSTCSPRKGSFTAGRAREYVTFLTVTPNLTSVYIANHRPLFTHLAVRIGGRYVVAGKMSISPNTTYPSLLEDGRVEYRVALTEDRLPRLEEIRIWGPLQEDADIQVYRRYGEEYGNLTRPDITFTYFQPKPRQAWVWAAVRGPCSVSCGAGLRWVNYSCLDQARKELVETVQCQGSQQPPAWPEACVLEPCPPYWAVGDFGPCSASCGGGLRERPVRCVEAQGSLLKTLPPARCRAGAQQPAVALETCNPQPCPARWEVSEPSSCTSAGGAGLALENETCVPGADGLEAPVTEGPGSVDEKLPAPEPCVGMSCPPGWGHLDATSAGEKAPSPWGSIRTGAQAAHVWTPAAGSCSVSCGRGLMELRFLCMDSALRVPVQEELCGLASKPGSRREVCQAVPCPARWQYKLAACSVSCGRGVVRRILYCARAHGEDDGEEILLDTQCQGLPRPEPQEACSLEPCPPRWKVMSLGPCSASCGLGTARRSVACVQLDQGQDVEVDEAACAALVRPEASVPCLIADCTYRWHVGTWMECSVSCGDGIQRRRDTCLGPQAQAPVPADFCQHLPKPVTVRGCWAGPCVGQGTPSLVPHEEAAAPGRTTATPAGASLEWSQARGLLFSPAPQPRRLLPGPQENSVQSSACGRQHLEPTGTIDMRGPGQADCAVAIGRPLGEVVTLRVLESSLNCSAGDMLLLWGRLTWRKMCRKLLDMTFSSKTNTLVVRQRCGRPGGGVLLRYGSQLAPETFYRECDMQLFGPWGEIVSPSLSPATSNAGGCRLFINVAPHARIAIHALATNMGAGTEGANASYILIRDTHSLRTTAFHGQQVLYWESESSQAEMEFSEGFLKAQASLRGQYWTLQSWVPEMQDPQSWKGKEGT

VWF (plasma-derived multimeric VWF), sequence (P04275 764-2813): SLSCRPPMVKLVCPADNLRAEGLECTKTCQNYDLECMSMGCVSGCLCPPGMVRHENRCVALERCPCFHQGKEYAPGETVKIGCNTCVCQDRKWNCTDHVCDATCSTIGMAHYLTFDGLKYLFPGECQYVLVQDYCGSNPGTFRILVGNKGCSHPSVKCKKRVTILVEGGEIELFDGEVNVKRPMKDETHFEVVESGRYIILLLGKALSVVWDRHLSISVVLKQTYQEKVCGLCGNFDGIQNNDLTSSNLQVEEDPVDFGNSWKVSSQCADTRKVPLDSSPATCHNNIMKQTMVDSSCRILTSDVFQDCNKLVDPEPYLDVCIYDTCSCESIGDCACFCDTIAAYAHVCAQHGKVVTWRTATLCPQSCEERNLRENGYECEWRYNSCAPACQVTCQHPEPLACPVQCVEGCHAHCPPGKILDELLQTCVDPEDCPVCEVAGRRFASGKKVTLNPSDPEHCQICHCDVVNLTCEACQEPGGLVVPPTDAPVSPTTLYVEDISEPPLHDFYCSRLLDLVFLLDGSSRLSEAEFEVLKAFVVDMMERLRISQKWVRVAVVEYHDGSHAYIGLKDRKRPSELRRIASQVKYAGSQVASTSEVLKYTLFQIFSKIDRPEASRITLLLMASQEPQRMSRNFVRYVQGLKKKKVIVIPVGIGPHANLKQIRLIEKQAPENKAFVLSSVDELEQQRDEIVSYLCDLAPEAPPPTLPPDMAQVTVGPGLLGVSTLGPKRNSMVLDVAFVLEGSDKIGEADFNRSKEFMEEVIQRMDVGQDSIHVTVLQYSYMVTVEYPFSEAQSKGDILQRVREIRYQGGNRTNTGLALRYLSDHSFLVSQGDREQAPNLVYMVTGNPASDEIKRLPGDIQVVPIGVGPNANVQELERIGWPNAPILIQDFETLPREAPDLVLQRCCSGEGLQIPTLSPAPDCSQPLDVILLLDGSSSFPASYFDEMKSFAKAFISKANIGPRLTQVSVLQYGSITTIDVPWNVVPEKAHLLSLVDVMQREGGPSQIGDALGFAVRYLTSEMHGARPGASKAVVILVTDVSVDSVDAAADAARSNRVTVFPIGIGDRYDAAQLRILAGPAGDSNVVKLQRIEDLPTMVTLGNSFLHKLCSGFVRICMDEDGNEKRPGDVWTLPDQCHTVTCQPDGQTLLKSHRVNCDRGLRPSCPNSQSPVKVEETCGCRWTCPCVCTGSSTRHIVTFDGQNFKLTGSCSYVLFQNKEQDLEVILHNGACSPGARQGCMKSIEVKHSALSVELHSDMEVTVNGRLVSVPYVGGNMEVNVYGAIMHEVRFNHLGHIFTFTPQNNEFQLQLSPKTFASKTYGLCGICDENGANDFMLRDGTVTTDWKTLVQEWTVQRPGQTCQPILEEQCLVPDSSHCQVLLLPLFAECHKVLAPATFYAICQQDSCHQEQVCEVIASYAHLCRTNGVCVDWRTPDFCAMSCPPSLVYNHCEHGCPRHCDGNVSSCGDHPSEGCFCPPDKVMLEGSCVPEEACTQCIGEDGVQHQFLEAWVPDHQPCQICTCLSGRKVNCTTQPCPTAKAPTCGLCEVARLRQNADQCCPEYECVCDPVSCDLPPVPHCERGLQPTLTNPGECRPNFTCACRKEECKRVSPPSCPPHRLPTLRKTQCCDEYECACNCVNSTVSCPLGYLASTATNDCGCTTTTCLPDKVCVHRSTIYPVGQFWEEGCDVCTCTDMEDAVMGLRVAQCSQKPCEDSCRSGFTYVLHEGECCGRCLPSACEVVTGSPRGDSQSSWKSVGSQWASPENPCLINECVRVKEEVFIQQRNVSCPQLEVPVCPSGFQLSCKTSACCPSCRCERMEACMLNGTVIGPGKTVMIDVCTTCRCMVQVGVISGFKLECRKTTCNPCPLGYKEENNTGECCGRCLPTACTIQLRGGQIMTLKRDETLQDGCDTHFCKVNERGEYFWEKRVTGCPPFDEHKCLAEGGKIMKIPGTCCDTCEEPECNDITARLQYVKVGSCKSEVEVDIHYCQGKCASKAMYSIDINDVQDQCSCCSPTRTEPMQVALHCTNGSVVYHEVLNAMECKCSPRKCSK
GST-rVWF73-H (GST-VWF73-H), sequence (P04275 1596-1668 limits assumed): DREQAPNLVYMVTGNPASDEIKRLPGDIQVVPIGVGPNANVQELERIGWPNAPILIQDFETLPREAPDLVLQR

As a reminder, the Kd is the concentration at which binding is half-saturated. Read a low Kd as a tighter complex. Take `C=CC1=C(C)/C(=C/c2[nH]c(Cc3[nH]c(/C=C4\NC(=O)C(C)=C4C=C)c(C)c3CCC(=O)O)c(CCC(=O)O)c2C)NC1=O` [unconjugated bilirubin]: the Kd in experiment [1] is 29.6 ± 40.1 µM; in experiment [2], 57.5 ± 80.7 µM; on rADAMTS13 (rA13), 17.5 ± 4 µM.
